Experimental data published in PubChem BioAssay (NCI).
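Growth conditions: 96-well plates. Treatment: test compound, 48 hours, 5 concentrations. Analysis: linear interpolation between bracketing concentrations; unreached endpoints set to highest concentration. GI50: concentration for 50% inhibition of growth. The concentration for full growth arrest is given as TGI.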

Legend:
Assay in all cases: NCI-60 cell line screen, 48 h
K-562 leukemia = test system: K-562 leukemia
SF-268 CNS = test system: SF-268 CNS
NCI-H522 lung = test system: NCI-H522 lung
SF-539 CNS = test system: SF-539 CNS
OVCAR-8 ovarian = test system: OVCAR-8 ovarian
786-0 renal = test system: 786-0 renal
KM12 colon = test system: KM12 colon
CCRF-CEM leukemia = test system: CCRF-CEM leukemia
SK-MEL-5 melanoma = test system: SK-MEL-5 melanoma
NCI-H226 lung = test system: NCI-H226 lung

NC(N)=NS(=O)(=O)c1ccc(NC(=O)c2cccc3c(Nc4ccc(S(=O)(=O)N=C(N)N)cc4)c4ccc(Cl)cc4nc23)cc1
TGI (K-562 leukemia): > 100 µM
TGI (SF-268 CNS): > 100 µM
TGI (NCI-H522 lung): > 100 µM
TGI (SF-539 CNS): > 100 µM
TGI (OVCAR-8 ovarian): > 100 µM
TGI (786-0 renal): > 100 µM
TGI (KM12 colon): > 100 µM
TGI (CCRF-CEM leukemia): > 100 µM
TGI (SK-MEL-5 melanoma): > 100 µM

COc1cc(C2C(Cl)C(=O)N2n2cnc3ccccc3c2=O)cc(OC)c1OC (centres undefined)
TGI (K-562 leukemia): > 100 µM
TGI (SF-268 CNS): > 100 µM
TGI (NCI-H522 lung): > 100 µM
TGI (OVCAR-8 ovarian): > 100 µM
TGI (786-0 renal): > 100 µM
TGI (NCI-H226 lung): > 100 µM
TGI (KM12 colon): > 100 µM
TGI (CCRF-CEM leukemia): > 100 µM
TGI (SK-MEL-5 melanoma): > 100 µM

NC(N)=NC(CC(=O)O)c1ccccc1 (centres undefined)
TGI (K-562 leukemia): > 100 µM
TGI (SF-268 CNS): > 100 µM
TGI (NCI-H522 lung): > 100 µM
TGI (SF-539 CNS): > 100 µM
TGI (OVCAR-8 ovarian): > 100 µM
TGI (786-0 renal): > 100 µM
TGI (KM12 colon): > 100 µM
TGI (SK-MEL-5 melanoma): > 100 µM

O/N=C1/C(=C/c2ccc(F)cc2)CCCC1C(NO)c1ccc(F)cc1 (centres undefined)
TGI (K-562 leukemia): > 100 µM
TGI (SF-268 CNS): > 100 µM
TGI (NCI-H522 lung): 42.5 µM
TGI (SF-539 CNS): > 100 µM
TGI (OVCAR-8 ovarian): > 100 µM
TGI (786-0 renal): > 100 µM
TGI (KM12 colon): 52.6 µM
TGI (CCRF-CEM leukemia): > 100 µM
TGI (SK-MEL-5 melanoma): 39.2 µM

C/C(=N\NC(=S)Nc1ccc(C(=O)O)cc1)c1ccccn1
TGI (K-562 leukemia): > 100 µM
TGI (SF-268 CNS): > 100 µM
TGI (SF-539 CNS): 40.3 µM
TGI (OVCAR-8 ovarian): 45.5 µM
TGI (786-0 renal): 43.3 µM
TGI (NCI-H226 lung): 34.2 µM
TGI (KM12 colon): 68.9 µM
TGI (CCRF-CEM leukemia): > 100 µM
TGI (SK-MEL-5 melanoma): 32.8 µM

Cn1ncc2cc3c(Nc4ccc(Cl)cc4)cccc3nc21
TGI (K-562 leukemia): > 100 µM
TGI (SF-268 CNS): > 100 µM
TGI (OVCAR-8 ovarian): 76.1 µM
TGI (786-0 renal): > 100 µM
TGI (KM12 colon): 35.6 µM
TGI (CCRF-CEM leukemia): 92.7 µM
TGI (SK-MEL-5 melanoma): 29.4 µM

COc1ccc(-c2oc3cc(O)c(OC)c(O)c3c(=O)c2OC2OC(CO)C(O)C(O)C2O)cc1 (centres undefined)
TGI (K-562 leukemia): > 100 µM
TGI (SF-539 CNS): > 100 µM
TGI (OVCAR-8 ovarian): > 100 µM
TGI (786-0 renal): > 100 µM
TGI (KM12 colon): > 100 µM
TGI (CCRF-CEM leukemia): > 100 µM
TGI (SK-MEL-5 melanoma): > 100 µM

O=S(=O)(c1ccc(NC(=S)N/N=C/c2ccccc2O)cc1)N1CCCCC1
TGI (SF-268 CNS): 6.9 µM
TGI (NCI-H522 lung): > 57.5 µM
TGI (SF-539 CNS): > 40.9 µM
TGI (OVCAR-8 ovarian): 14.9 µM
TGI (786-0 renal): 4.34 µM
TGI (NCI-H226 lung): 0.803 µM
TGI (KM12 colon): 12.9 µM
TGI (CCRF-CEM leukemia): 1.66 µM
TGI (SK-MEL-5 melanoma): 0.176 µM

CCOP(=O)(OCC)C1C(=O)O[C@H]2CCCC[C@@H]12 (some centres undefined)
TGI (K-562 leukemia): > 100 µM
TGI (SF-268 CNS): > 100 µM
TGI (SF-539 CNS): > 100 µM
TGI (OVCAR-8 ovarian): > 100 µM
TGI (786-0 renal): > 100 µM
TGI (KM12 colon): > 100 µM
TGI (CCRF-CEM leukemia): > 100 µM
TGI (SK-MEL-5 melanoma): > 100 µM

COc1cc(O)c(C(=O)/C=C/c2ccccc2)c(OC)c1
TGI (SF-268 CNS): 20.8 µM
TGI (NCI-H522 lung): 12.1 µM
TGI (SF-539 CNS): 12.8 µM
TGI (OVCAR-8 ovarian): 10.1 µM
TGI (786-0 renal): 21.6 µM
TGI (NCI-H226 lung): 12.8 µM
TGI (KM12 colon): 13.6 µM
TGI (CCRF-CEM leukemia): 7.22 µM
TGI (SK-MEL-5 melanoma): 24.2 µM

CCOC(=O)/C(C1=N[C@H](C(=O)OCC)CS1)=C(\C)O
TGI (K-562 leukemia): > 100 µM
TGI (SF-268 CNS): > 100 µM
TGI (NCI-H522 lung): > 100 µM
TGI (OVCAR-8 ovarian): > 100 µM
TGI (786-0 renal): > 100 µM
TGI (NCI-H226 lung): > 100 µM
TGI (KM12 colon): > 100 µM
TGI (CCRF-CEM leukemia): > 100 µM
TGI (SK-MEL-5 melanoma): > 100 µM

CC(=O)c1ccc(Nc2cc(-n3ccnc3)nc3ccccc23)cc1
GI50 (K-562 leukemia): 11.4 µM
TGI (K-562 leukemia): 81.5 µM
GI50 (SF-268 CNS): 14.8 µM
TGI (SF-268 CNS): 67.7 µM
GI50 (NCI-H522 lung): 87.9 µM
TGI (NCI-H522 lung): > 100 µM
GI50 (SF-539 CNS): 40.6 µM
TGI (SF-539 CNS): 88.7 µM
GI50 (OVCAR-8 ovarian): 50.5 µM
TGI (OVCAR-8 ovarian): > 100 µM
GI50 (786-0 renal): 7.86 µM
TGI (786-0 renal): 41.3 µM
GI50 (NCI-H226 lung): 24.4 µM
TGI (NCI-H226 lung): 92.1 µM
GI50 (SK-MEL-5 melanoma): 15.6 µM
TGI (SK-MEL-5 melanoma): 53 µM
